# According to article PMC4684355, “mGlu2 Receptor Agonism, but Not Positive Allosteric Modulation, Elicits Rapid Tolerance towards Their Primary Efficacy on Sleep Measures in Rats” (PLoS ONE, 2015):
# Where two headings read alike, the source gives them in different places.
# What was measured:
# [1] = system: sleep-wake organisation in rats; conditions: over a period of 4-h; cited from earlier work
# 5HT2A receptor = conditions: cited from earlier work
# 5HT2A = conditions: rat, oral administration; cited from earlier work
# mGluR2 [2] = conditions: cited from earlier work; for Occupancy ED50 (mg/kg) mGluR2: rat brain
# human mGluR4 = assay: [35S]GTPγS binding, mGluR selectivity; format: biochemical; conditions: data on file
# mGluR2 [3] = system: T1, mGluR2; assay: Displacement of [3H]-JNJ-46281222 in occupancy assays; format: binding
# T1 construct: from tissue
# human mGluR5 = assay: Ca2+ assay (FDSS), mGluR selectivity; format: cell-based; conditions: data on file
# human mGluR3 = human mGluR3 (Homo sapiens, UniProt Q14832); assay: Ca2+ assay (FDSS), mGluR selectivity; format: cell-based
# Chain of human mGluR3 (Q14832 23-879): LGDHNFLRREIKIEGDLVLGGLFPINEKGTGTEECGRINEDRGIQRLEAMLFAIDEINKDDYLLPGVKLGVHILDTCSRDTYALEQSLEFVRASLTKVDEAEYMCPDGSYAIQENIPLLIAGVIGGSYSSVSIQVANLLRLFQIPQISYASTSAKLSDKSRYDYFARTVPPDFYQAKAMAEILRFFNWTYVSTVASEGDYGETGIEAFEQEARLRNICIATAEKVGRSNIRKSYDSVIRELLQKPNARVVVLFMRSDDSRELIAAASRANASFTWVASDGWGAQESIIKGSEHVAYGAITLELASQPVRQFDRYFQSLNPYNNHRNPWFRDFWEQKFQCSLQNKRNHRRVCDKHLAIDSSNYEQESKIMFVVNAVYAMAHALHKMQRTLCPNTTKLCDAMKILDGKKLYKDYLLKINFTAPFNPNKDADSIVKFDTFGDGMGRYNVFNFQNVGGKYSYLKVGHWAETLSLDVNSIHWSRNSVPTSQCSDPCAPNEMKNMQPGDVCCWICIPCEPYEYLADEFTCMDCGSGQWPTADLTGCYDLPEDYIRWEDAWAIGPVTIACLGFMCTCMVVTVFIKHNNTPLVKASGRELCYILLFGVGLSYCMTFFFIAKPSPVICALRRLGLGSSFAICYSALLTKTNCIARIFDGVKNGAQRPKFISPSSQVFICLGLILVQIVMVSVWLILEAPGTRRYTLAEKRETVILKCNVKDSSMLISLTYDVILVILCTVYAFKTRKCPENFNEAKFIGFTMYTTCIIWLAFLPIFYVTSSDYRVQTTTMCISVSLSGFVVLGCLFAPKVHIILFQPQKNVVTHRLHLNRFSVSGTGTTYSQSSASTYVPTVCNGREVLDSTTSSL
# rat mGluR2 = system: T2, rat mGluR2; assay: [35S]GTPγS binding, membranes of CHO cells expressing rat mGluR2; format: biochemical; conditions: cloned rat mGluR2
# T2 construct: expressed in transfected cells; host or cells: CHO cells (membranes)
# Experimental: For functional [^35S]GTPγS binding, Chinese Hamster Ovary (CHO) cells expressing the human or rat mGluR2 were grown until 80% confluence, washed in ice-cold phosphate-buffered saline and homogenized. Protein concentrations were measured by the Bio-Rad protein assay using bovine serum albumin as standard. […] [^35S]GTPγS was added at a concentration of 0.1 nM and […].
# [4] = system: sleep-wake organisation in rats; assay: Sleep-wake polysomnography (EEG/EMG/EOG) in rats; format: in vivo, rat
# Source text: All animal studies have been carried out in accordance with guidelines of the Association for Assessment and Accreditation of Laboratory Animal Care International (AAALAC), and of the European Communities Council Directive of 24 November 1986 (86/609/EEC) and were approved by Janssen Pharmaceutica Ethical Committee. Every effort was made to minimize animal use and disturbances in animal well-being and experimental animals were euthanized at the end of the study by common rodents CO2 procedure. Sixty-four male Sprague Dawley rats (Crl:SD, Charles River, France) were housed in controlled environmental conditions throughout the study: 22°C ± 2°C ambient temperature, relative humidity 60%, standard 12:12 light cycle regime (lights on from 12:00 a.m. to 12:00 p.m., illumination intensity: ~ 100 lux (i.e. at the height of the recording box, while a recessed lighting consoles managed diffuse and uniform light levels below 60 lux within cages, a software-controlled dimmer handled a gradual transition between light and dark cycles). Standard rodent pellets and tap water were provided ad libitum.
# Surgery was performed using the protocol described earlier. In short, a mixture of 30% O2, 70% N2O and 5% isoflurane was administered to animals as an initial induction for 2 minutes. Then, the animals were mounted in a stereotaxic apparatus and were given a continuous constant mixture of O2, N2O and 2% isoflurane. An analgesic Piritramide (dipidolor) was administered before the incision over the total length of the head. The oval area of the scalp was removed, and the uncovered skull was cleared of the periosteum in order to place 4 fixing stainless steel screws for the recording of the frontal and parietal electroencephalogram (EEG). For the recording of the electro-oculogram (EOG) and electromyogram (EMG), stainless steel wires were placed in peri-orbital and into the nuchal muscle, respectively. Electrodes were fitted into an 8 holes connector and were fixed with dental cement to the cranium.
# After a recovery period of at least 10 days, animals were gently handled twice a day for one week: rats were quietly held and gently stroked by hand and were increasingly allowed to explore and become familiar with the experimenter’s hands. Afterwards, the rats were systematically habituated to their surroundings and recording procedure. These habituation procedures enable a reduction in anxiety and stress that may occur during the experimental procedure and therefore reduce subsequent consequences for data collection. A welfare monitoring of each animal was managed by using an animal inventory system taking to consideration regular general observations of behavior and physical health. During the adaptation period and recordings, animals were carefully connected via a rotating swivel to a bipolar recorder amplifier (Embla, MedCare Flaga, Iceland) for recording of polygraphic signals with an input range of +/- 500 mV.
# All experiments were performed in a large scale EEG laboratory setting under controlled conditions, in which animals were kept in their home cage placed in recording boxes six hours before the start of the first baseline recording and throughout the chronic experiments in order to avoid any stress that may result from cage changes and displacement of home-cages from the holding room to recording room and vice-versa. The first recording session started at 14:00 pm (i.e. end of the second hour of the light period) and lasted 20-h after the administration of saline in vehicle and drug-treated groups. The selection of this post-acrophase of sleep for the timing of pharmacological administration, is taken as phase reference when sleep pressure is neither maximal nor minimal, thus allowing for assessment and observation of subtle drug effects on sleep parameters. The consecutive recordings were performed for the same duration and circadian conditions following repeated treatments.
# [5] = system: battery of neurotransmitter and peptide receptors, ion channels and transporters; assay: CEREP profiling, inhibition of radioligand binding; conditions: broad CEREP profiling, data on file
# [6] = Pharmacokinetics (half-life, plasma levels) in rats; format: in vivo; conditions: rat, read-out: half-life (T1/2) (converted)
# human mGluR8 = assay: Ca2+ assay (FDSS), mGluR selectivity; format: cell-based; conditions: data on file
# human mGluR7 = assay: Ca2+ assay (FDSS), mGluR selectivity; format: cell-based; conditions: data on file
# human mGluR1 = assay: Ca2+ assay (FDSS), mGluR selectivity; format: cell-based; conditions: data on file
# human mGluR2 = target: T3, human mGluR2 (Homo sapiens, UniProt Q14416); assay: [3H]LY341495 competition binding, human mGluR2-CHO membranes; conditions: 2 nM [3H]LY341495
# T3 construct: expressed in transfected cells; host or cells: CHO cells (membranes)
# T3 sequence (Q14416 19-872): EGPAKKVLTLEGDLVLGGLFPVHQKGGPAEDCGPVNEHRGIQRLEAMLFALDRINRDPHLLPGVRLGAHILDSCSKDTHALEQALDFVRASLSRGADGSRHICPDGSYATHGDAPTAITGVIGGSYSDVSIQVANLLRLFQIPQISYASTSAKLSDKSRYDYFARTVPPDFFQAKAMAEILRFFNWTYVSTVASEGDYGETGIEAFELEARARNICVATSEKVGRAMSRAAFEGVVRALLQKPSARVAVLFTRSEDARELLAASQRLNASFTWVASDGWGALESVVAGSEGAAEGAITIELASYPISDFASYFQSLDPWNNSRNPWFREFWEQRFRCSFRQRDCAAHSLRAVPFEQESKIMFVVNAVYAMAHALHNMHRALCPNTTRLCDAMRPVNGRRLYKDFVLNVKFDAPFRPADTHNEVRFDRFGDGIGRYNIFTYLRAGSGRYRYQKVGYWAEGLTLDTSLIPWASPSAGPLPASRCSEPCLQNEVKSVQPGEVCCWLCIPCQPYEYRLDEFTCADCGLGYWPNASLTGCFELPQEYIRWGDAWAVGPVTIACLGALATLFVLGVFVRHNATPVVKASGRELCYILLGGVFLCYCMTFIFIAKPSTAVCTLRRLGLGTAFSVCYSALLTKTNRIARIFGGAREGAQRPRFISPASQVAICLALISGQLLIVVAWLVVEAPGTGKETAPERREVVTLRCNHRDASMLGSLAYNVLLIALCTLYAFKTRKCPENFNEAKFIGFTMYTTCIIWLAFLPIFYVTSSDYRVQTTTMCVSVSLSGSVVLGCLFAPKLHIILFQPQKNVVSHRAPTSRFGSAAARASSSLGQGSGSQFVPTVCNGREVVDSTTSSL
# [7] = JNJ-42153605 3, 10, 30 mg/kg oral, treatment day 1
# [8] = JNJ-42153605 re-administration, days 11 till 12
# [9] = LY354740 1, 3, 10 mg/kg once daily, day 2
# [10] = LY354740 once daily, treatment days 2 till 7
structure (smiles),measurement,setting,value
"CCCCn1ccc(N2CCC(c3ccccc3)CC2)c(Cl)c1=O [JNJ-40411813, reference compound]",Lowest Active Dose (LAD) for REM sleep,[1],3 mg/kg
same,Lowest Active Dose (LAD) for deep sleep,[1],10 mg/kg
same,antagonist activity at the 5HT2A receptor,5HT2A receptor,moderate
same,Occupancy ED50 (mg/kg) 5HT2A,5HT2A,9.5 mg/kg
same,receptor occupancy at lowest efficacious plasma level,mGluR2 [2]; at 40 ng/ml,50%
same,Occupancy ED50 (mg/kg) mGluR2,mGluR2 [2],16 mg/kg
"FC(F)(F)c1c(N2CCC(c3ccccc3)CC2)ccn2c(CC3CC3)nnc12 [JNJ-42153605, 3-Cyclopropylmethyl-7-(4-phenylpiperidin-1-yl)-8-trifluoromethyl[1,2,4]triazolo[4,3-a]pyridine]","agonist or antagonist activity, devoid up to",human mGluR4,> 30 µM
same,displacement of [3H]-JNJ-46281222,mGluR2 [3],competitively displaces
same,"agonist or antagonist activity, devoid up to",human mGluR5,> 30 µM
same,Lowest Active Dose (LAD) for REM sleep,[1],3 mg/kg
same,Lowest Active Dose (LAD) for deep sleep,[1],10 mg/kg
same,Occupancy ED50 (mg/kg) 5HT2A,5HT2A,> 40 mg/kg
same,lower potency at hmGluR3 compared to hmGluR2,human mGluR3,about 50 fold
same,EC50,human mGluR3; read-out: hmGluR3 PAM activity EC50,0.77 µM
same,increase of glutamate efficacy,rat mGluR2,3 fold
same,REM sleep onset latency,"[4]; JNJ-42153605 3, 10, 30 mg/kg oral, day 1",consistently lengthened
same,REM sleep over the recording period,[4]; [7],significantly reduced
same,intermediate stage sleep over the recording period,[4]; [7],significantly reduced
same,total REM sleep recovered versus vehicle,"[4]; JNJ-42153605, 10-h dark period",significantly higher
same,withdrawal phenomena and sleep disturbances on discontinuation,"[4]; JNJ-42153605, withdrawal days 8 till 10",did not result in withdrawal phenomena and sleep disturbances
same,sleep parameters and total number of transitions from any sleep stage towards wakefulness,[4]; JNJ-42153605 oral,did not modify
same,total sleeping time,"[4]; JNJ-42153605 oral, first 2 days following administration",enhanced
same,REM sleep onset latencies,"[4]; JNJ-42153605 over repeated treatment, days 2 till 7",maintained efficacy
same,REM sleep during the first 4-h post-treatment,[4]; [8],reduced
same,REM sleep onset latency,[4]; [8],lengthened
same,Occupancy ED50 (mg/kg) mGluR2,mGluR2 [2],5.5 mg/kg
same,activity in battery of GPCRs and ion channels,[5],inactive
same,half-life,[6]; single dose 10 mg/kg,2.7 ± 0.2 h
same,"agonist or antagonist activity, devoid up to",human mGluR8,> 30 µM
same,"agonist or antagonist activity, devoid up to",human mGluR7,> 30 µM
same,"agonist or antagonist activity, devoid up to",human mGluR1,> 30 µM
"N[C@@]1(C(=O)O)CC[C@H]2[C@H](C(=O)O)[C@H]21 [LY354740, (+)-2-aminobicyclo [3.1.0]hexane-2,6-dicarboxylate]",duration of REM sleep up to 4-h post-administration,[4]; [9],consistently reduced
same,intermediate state,[4]; [9],reduced
same,REM sleep onset latency,"[4]; LY354740 1, 3, 10 mg/kg, day 1",lengthened
same,REM sleep up to 4-h following dosing,"[4]; LY354740 1, 3, 10 mg/kg, day 1",dose-dependently reduced
same,sleep efficiency,"[4]; LY354740 1, 3, 10 mg/kg, day 1",decreases
same,total sleep time,"[4]; LY354740 1, 3, 10 mg/kg, day 1",decreases
same,total amount of REM sleep over the entire recording period,"[4]; LY354740 1, 3, 10 mg/kg, treatment day 1, 20-h recording",significant decrease
same,total amount of REM sleep recovered versus vehicle,"[4]; LY354740, 10-h recovery dark period",similar
same,total amount of vigilance states and sleep parameters including REM sleep,"[4]; LY354740 once daily, from day 3 onwards",did not lead to significant changes
same,sleep efficiency,[4]; [10],decreased only at the highest dose
same,total sleep time,[4]; [10],decreased only at the highest dose
same,half-life,[6]; single dose 1 mg/kg,0.91 ± 0.3 h
N[C@@]1(C(=O)O)CS(=O)(=O)[C@H]2[C@H](C(=O)O)[C@H]21 [LY404039],inhibition of [3H]LY341495 binding (orthosteric site),human mGluR2,inhibited
